PMC6522510 (Nature Communications, 2019)
pEC50: −log10 of the molar value.

Experiments:
[1] = system: MOLM-13; experiment: cells; design: species or system AML cell lines (8); Secondary HTS, 10-point dose-response in triplicate, Cell Titer Glo viability, four-parameter fit EC50; details: Homo sapiens, MOLM-13, 72 h, read-out: MOLM-13
[2] = system: MV4-11; experiment: cells; design: species or system AML cell lines (8); Secondary HTS, 10-point dose-response in triplicate, Cell Titer Glo viability, four-parameter fit EC50; details: Homo sapiens, MV4-11, 72 h, read-out: MV4-11
[3] = system: CHRF288-11; experiment: cells; design: species or system AML cell lines (8); Secondary HTS, 10-point dose-response in triplicate, Cell Titer Glo viability, four-parameter fit EC50; details: 72 h, read-out: CHRF288-11
[4] = system: CMK; experiment: cells; design: species or system AML cell lines (8); Secondary HTS, 10-point dose-response in triplicate, Cell Titer Glo viability, four-parameter fit EC50; details: Homo sapiens, CMK, 72 h, read-out: CMK
[5] = system: CMS; experiment: cells; design: species or system AML cell lines (8); Secondary HTS, 10-point dose-response in triplicate, Cell Titer Glo viability, four-parameter fit EC50; details: 72 h, read-out: CMS
[6] = system: M07e; experiment: cells; design: species or system AML cell lines (8); Secondary HTS, 10-point dose-response in triplicate, Cell Titer Glo viability, four-parameter fit EC50; details: M-07e, 72 h, read-out: M07e
[7] = system: ML-2; experiment: cells; design: species or system AML cell lines (8); Secondary HTS, 10-point dose-response in triplicate, Cell Titer Glo viability, four-parameter fit EC50; details: Homo sapiens, ML-2, 72 h, read-out: ML-2
[8] = system: U937; experiment: cells; design: species or system AML cell lines (8); Secondary HTS, 10-point dose-response in triplicate, Cell Titer Glo viability, four-parameter fit EC50; details: Homo sapiens, U-937, 72 h, read-out: U937
[9] = system: MV4-11; experiment: Secondary dose-response HTS, Cell Titer Glo; type: cell-based, human; details: Homo sapiens; secondary high-throughput screen; MV4-11; read-out: average effective concentration, MV4-11
[10] = system: U937; experiment: Secondary dose-response HTS, Cell Titer Glo; type: cell-based, human; details: Homo sapiens, U-937; secondary high-throughput screen; U937; read-out: average effective concentration, U937
[11] = system: MOLM-13; experiment: Secondary dose-response HTS, Cell Titer Glo; type: cell-based, human; details: Homo sapiens; secondary high-throughput screen; MOLM-13; read-out: average effective concentration, MOLM-13

| Compound | pEC50 [1] | pEC50 [2] | pEC50 [8] | pEC50 [9] | pEC50 [10] | pEC50 [11] | pEC50 [3] | pEC50 [4] | pEC50 [5] | pEC50 [6] | pEC50 [7] |
| --- | --- | --- | --- | --- | --- | --- | --- | --- | --- | --- | --- |
| OC[C@H]1NC[C@H](O)[C@@H](O)[C@H]1O | < 5.00 | < 5.00 | < 5.00 |  |  |  | < 5.00 | < 5.00 | < 5.00 | < 5.00 | < 5.00 |
| C=C1C(=O)O[C@@H](CCC)[C@@H]1C(=O)O (racemic) [SJ000784258, BUTYROLACTONE 3] | 5.74 | < 5.00 | < 5.00 |  |  |  | < 5.00 | < 5.00 | < 5.00 | < 5.00 | < 5.00 |
| C=C1CCCC2(C)C[C@H]3OC(=O)C(=C)[C@H]3CC12 (stereo in doubt) [SJ000834159, ISOHELENIN] | 5.23 | < 5.00 | 5.09 |  |  |  | 5.17 | 5.28 | 5.27 | < 5.00 | 5.18 |
| CCC1(c2ccc(N)cc2)CCC(=O)NC1=O (centres unmarked) [AMINOGLUTETHIMIDE] | < 5.00 | < 5.00 | < 5.00 |  |  |  | < 5.00 | < 5.00 | < 5.00 | < 5.00 | < 5.00 |
| S=C(NCc1ccc2c(c1)OCO2)N1CCN(c2ncnc3c2oc2ccccc23)CC1 [AMUVATINIB] | < 5.00 | < 5.00 | < 5.00 |  |  |  | < 5.00 | < 5.00 | < 5.00 | < 5.00 | < 5.00 |
| CC(C)(C#N)c1cc(Cn2cncn2)cc(C(C)(C)C#N)c1 [ANASTROZOLE] | < 5.00 | < 5.00 | < 5.00 |  |  |  | < 5.00 | < 5.00 | < 5.00 | < 5.00 | < 5.00 |
| Cc1cc([C@@H](C)Nc2ccccc2C(=O)O)c2nc(N3CCOCC3)cc(=O)n2c1 [AZD6482] | < 5.00 | < 5.00 | < 5.00 |  |  |  | < 5.00 | < 5.00 | < 5.00 | < 5.00 | < 5.00 |
| O=c1[nH]c(=O)n([C@H]2C[C@H](O)[C@@H](CO)O2)cc1/C=C/Br [BRIVUDINE] | < 5.00 | < 5.00 | < 5.00 |  |  |  | < 5.00 | < 5.00 | < 5.00 | < 5.00 | < 5.00 |
| CCc1cc2c(cc1N1CCC(N3CCOCC3)CC1)C(C)(C)c1[nH]c3cc(C#N)ccc3c1C2=O [CH5424802] | < 5.00 | < 5.00 | < 5.00 |  |  |  | < 5.00 | < 5.00 | < 5.00 | < 5.00 | < 5.00 |
| Nc1nc(OCc2ccccc2)c2nc[nH]c2n1 [Compound O6-BENZYLGUANINE] | < 5.00 | < 5.00 | < 5.00 |  |  |  | < 5.00 | < 5.00 | < 5.00 | < 5.00 | < 5.00 |
| CC(C)(C)c1nc(-c2cccc(NS(=O)(=O)c3c(F)cccc3F)c2F)c(-c2ccnc(N)n2)s1 [DABRAFENIB] | < 5.00 | < 5.00 | < 5.00 |  |  |  | < 5.00 | < 5.00 | < 5.00 | < 5.00 | < 5.00 |
| Cn1cc(C2=C(c3cn(C4CCN(Cc5ccccn5)CC4)c4ccccc34)C(=O)NC2=O)c2ccccc21 [ENZASTAURIN] | < 5.00 | < 5.00 | < 5.00 |  |  |  | < 5.00 | < 5.00 | < 5.00 | < 5.00 | < 5.00 |
| CC(C(=O)O)c1ccc(-c2ccccc2)c(F)c1 (centres unmarked) [FLURBIPROFEN] | < 5.00 | < 5.00 | < 5.00 |  |  |  | < 5.00 | < 5.00 | < 5.00 | < 5.00 | < 5.00 |
| CC(C)n1c(/C=C/C(O)CC(O)CC(=O)O)c(-c2ccc(F)cc2)c2ccccc21 (centres unmarked) [FLUVASTATIN] | < 5.00 | < 5.00 | < 5.00 |  |  |  | < 5.00 | < 5.00 | < 5.00 | < 5.00 | < 5.00 |
| Cc1c(Cn2c(C)nc3c(C(=O)O)cc(N4CCOCC4)cc32)cccc1C(F)(F)F [GSK-2636771] | < 5.00 | < 5.00 | < 5.00 |  |  |  | < 5.00 | < 5.00 | < 5.00 | < 5.00 | < 5.00 |
| O[C@@H]1CO[C@H]2[C@@H]1OC[C@@H]2O [ISOSORBIDE] | < 5.00 | < 5.00 | < 5.00 |  |  |  | < 5.00 | < 5.00 | < 5.00 | < 5.00 | < 5.00 |
| Nc1nc(OCc2cc(Br)cs2)c2[nH]cnc2n1 [LOMEGUATRIB] | < 5.00 | < 5.00 | < 5.00 |  |  |  | < 5.00 | < 5.00 | < 5.00 | < 5.00 | < 5.00 |
| S=c1[nH]cnc2nc[nH]c12 [MERCAPTOPURINE] | < 5.00 | < 5.00 | < 5.00 |  |  |  | < 5.00 | < 5.00 | < 5.00 | < 5.00 | < 5.00 |
| Oc1ccc(/C=C/c2cc(O)cc(O)c2)cc1 [RESVERATROL] |  |  | < 5.00 | < 5.00 |  | 5.05 | < 5.00 | < 5.00 | < 5.00 | < 5.00 | < 5.00 |

Second part, led by results:

| pEC50 [1] | pEC50 [2] | pEC50 [8] | pEC50 [9] | pEC50 [10] | pEC50 [11] | Compound | pEC50 [3] | pEC50 [4] | pEC50 [5] | pEC50 [6] | pEC50 [7] |
| --- | --- | --- | --- | --- | --- | --- | --- | --- | --- | --- | --- |
| < 5.00 | < 5.00 | < 5.00 |  |  |  | CC1=C(CC(=O)O)c2cc(F)ccc2/C1=C\c1ccc([S+](C)[O-])cc1 (centres unmarked) | < 5.00 | < 5.00 | < 5.00 | < 5.00 | < 5.00 |
| 7.14 | 7.34 | 6.87 |  |  |  | COc1ccc(C[C@H](NC(=O)[C@H](C)NC(=O)CN2CCOCC2)C(=O)N[C@@H](Cc2ccccc2)C(=O)C2(C)CO2)cc1 (stereo in doubt) [SJ000834147, ONX-0914] | 6.77 | 6.64 | 6.96 | 7.10 | 7.37 |
| < 5.00 | < 5.00 | < 5.00 |  |  |  | C[C@H]1C[C@H]2[C@@H]3CCC4=CC(=O)C=C[C@]4(C)[C@@]3(F)[C@@H](O)C[C@]2(C)[C@@]1(O)C(=O)CO [BETAMETHASONE] | < 5.00 | < 5.00 | < 5.00 | < 5.00 | < 5.00 |
| < 5.00 | < 5.00 | < 5.00 |  |  |  | CCN(CCO)CCCC(C)Nc1ccnc2cc(Cl)ccc12 (centres unmarked) [HYDROXYCHLOROQUINE] | < 5.00 | < 5.00 | < 5.00 | < 5.00 | < 5.00 |
| < 5.00 | < 5.00 | < 5.00 |  |  |  | CC[C@H](Nc1ncnc2[nH]cnc12)c1nc2cccc(F)c2c(=O)n1-c1ccccc1 [IDELALISIB] | < 5.00 | < 5.00 | < 5.00 | < 5.00 | < 5.00 |
| < 5.00 | < 5.00 | < 5.00 |  |  |  | CS(=O)(=O)CCNCc1ccc(-c2ccc3ncnc(Nc4ccc(OCc5cccc(F)c5)c(Cl)c4)c3c2)o1 [LAPATINIB] | < 5.00 | < 5.00 | < 5.00 | < 5.00 | < 5.00 |
| < 5.00 | < 5.00 | < 5.00 |  |  |  | Cc1cccc(-c2nn3c(c2-c2ccnc4ccc(C(N)=O)cc24)CCC3)n1 [LY2157299] | < 5.00 | < 5.00 | < 5.00 | < 5.00 | < 5.00 |
| < 5.00 |  |  | < 5.00 | < 5.00 |  | Cc1ccc(NC(=O)c2ccc(CN3CCN(C)CC3)cc2)cc1Nc1nc(-c2cccnc2)cs1 [MASITINIB] | < 5.00 | < 5.00 | < 5.00 | < 5.00 | < 5.00 |
|  |  | < 5.00 | 6.47 |  | 5.82 | CNC(=O)c1cc(Oc2ccc(NC(=O)Nc3ccc(Cl)c(C(F)(F)F)c3)c(F)c2)ccn1 [REGORAFENIB] | < 5.00 | < 5.00 | < 5.00 | < 5.00 | < 5.00 |
